Test results from the NIST ThermoML archive (doi:10.1016/j.jct.2004.07.031).
Values joined by “and” are separate entries in the source; they are usually repeats but may differ in a detail not shown here. Identical values can stand only once.

Experiment: molar heat capacity at constant pressure
Settings: 101.33 kPa, Crystal, PPMS instrument (Quantum Design)

O=P([O-])([O-])[O-].[La+3] [lanthanum orthophosphate]
Settings | molar heat capacity at constant pressure
2.046 K | 0.00182 J/K/mol
2.066 K | 0.00139 J/K/mol
2.067 K | 0.0014 J/K/mol
2.068 K | 0.00141 J/K/mol
2.083 K | 0.00123 J/K/mol
2.246 K | 0.0017 J/K/mol
2.247 K | 0.0017 J/K/mol and 0.00172 J/K/mol
2.415 K | 0.00201 J/K/mol
2.429 K | 0.00212 J/K/mol
2.43 K | 0.00213 J/K/mol
2.616 K | 0.00265 J/K/mol
2.617 K | 0.00266 J/K/mol
2.618 K | 0.00266 J/K/mol
2.763 K | 0.0031 J/K/mol
2.802 K | 0.0034 J/K/mol
2.803 K | 0.00342 J/K/mol
2.805 K | 0.00339 J/K/mol
2.989 K | 0.00467 J/K/mol
2.992 K | 0.00476 J/K/mol
2.994 K | 0.00473 J/K/mol
3 K | 0.0053 J/K/mol
3.115 K | 0.00524 J/K/mol
3.19 K | 0.00601 J/K/mol
3.191 K | 0.00593 J/K/mol and 0.00603 J/K/mol
3.383 K | 0.00728 J/K/mol
3.385 K | 0.00731 J/K/mol
3.386 K | 0.0073 J/K/mol
3.473 K | 0.00765 J/K/mol
3.505 K | 0.00809 J/K/mol
3.578 K | 0.00852 J/K/mol
3.58 K | 0.00853 J/K/mol and 0.00852 J/K/mol
3.772 K | 0.00994 J/K/mol
3.775 K | 0.00998 J/K/mol
3.778 K | 0.00998 J/K/mol
3.839 K | 0.01034 J/K/mol
3.969 K | 0.01147 J/K/mol
3.973 K | 0.01149 J/K/mol
3.976 K | 0.01146 J/K/mol
4.008 K | 0.01178 J/K/mol
4.168 K | 0.0131 J/K/mol
4.172 K | 0.01315 J/K/mol
4.174 K | 0.01314 J/K/mol
4.207 K | 0.01339 J/K/mol
4.368 K | 0.01481 J/K/mol
4.371 K | 0.01487 J/K/mol
4.372 K | 0.01494 J/K/mol
4.518 K | 0.01632 J/K/mol
4.565 K | 0.01686 J/K/mol
4.568 K | 0.01687 J/K/mol
4.569 K | 0.0169 J/K/mol
4.576 K | 0.01697 J/K/mol
4.763 K | 0.01882 J/K/mol
4.765 K | 0.01903 J/K/mol
4.768 K | 0.01911 J/K/mol
4.946 K | 0.02113 J/K/mol
4.961 K | 0.02146 J/K/mol
4.965 K | 0.02154 J/K/mol
4.967 K | 0.02153 J/K/mol
5.031 K | 0.02216 J/K/mol
5.166 K | 0.02384 J/K/mol
5.173 K | 0.02394 J/K/mol
5.174 K | 0.02375 J/K/mol
5.323 K | 0.02601 J/K/mol
5.367 K | 0.0265 J/K/mol
5.369 K | 0.02666 J/K/mol
5.37 K | 0.02686 J/K/mol
5.546 K | 0.02914 J/K/mol
5.565 K | 0.02951 J/K/mol
5.574 K | 0.02974 J/K/mol and 0.02916 J/K/mol
5.695 K | 0.03139 J/K/mol
5.77 K | 0.03276 J/K/mol
5.771 K | 0.03277 J/K/mol
5.774 K | 0.03288 J/K/mol
5.965 K | 0.03647 J/K/mol
5.967 K | 0.03583 J/K/mol
5.974 K | 0.03623 J/K/mol
6.057 K | 0.03765 J/K/mol
6.065 K | 0.03776 J/K/mol
6.165 K | 0.03972 J/K/mol
6.17 K | 0.03972 J/K/mol
6.171 K | 0.03961 J/K/mol
6.367 K | 0.04348 J/K/mol
6.37 K | 0.04345 J/K/mol
6.373 K | 0.04366 J/K/mol
6.438 K | 0.04486 J/K/mol
6.567 K | 0.04741 J/K/mol
6.572 K | 0.04748 J/K/mol
6.574 K | 0.04752 J/K/mol and 0.04753 J/K/mol
6.768 K | 0.05148 J/K/mol
6.773 K | 0.05174 J/K/mol
6.774 K | 0.05167 J/K/mol
6.812 K | 0.05274 J/K/mol
6.968 K | 0.0563 J/K/mol
6.973 K | 0.0564 J/K/mol
6.976 K | 0.05661 J/K/mol
7.087 K | 0.05926 J/K/mol
7.169 K | 0.06123 J/K/mol
7.175 K | 0.06142 J/K/mol
7.176 K | 0.06139 J/K/mol
7.188 K | 0.06178 J/K/mol
7.371 K | 0.06581 J/K/mol
7.377 K | 0.06689 J/K/mol
7.381 K | 0.06684 J/K/mol
7.56 K | 0.07178 J/K/mol
7.57 K | 0.07164 J/K/mol
7.575 K | 0.072 J/K/mol
7.579 K | 0.07223 J/K/mol
7.604 K | 0.07273 J/K/mol
7.774 K | 0.07756 J/K/mol
7.778 K | 0.07802 J/K/mol
7.779 K | 0.07794 J/K/mol
7.937 K | 0.08278 J/K/mol
7.975 K | 0.08393 J/K/mol
7.98 K | 0.08397 J/K/mol
7.983 K | 0.08418 J/K/mol
8.119 K | 0.08872 J/K/mol
8.176 K | 0.09007 J/K/mol
8.182 K | 0.09043 J/K/mol
8.184 K | 0.09022 J/K/mol
8.313 K | 0.09473 J/K/mol
8.378 K | 0.09678 J/K/mol
8.383 K | 0.09686 J/K/mol
8.385 K | 0.09715 J/K/mol
8.584 K | 0.1041 J/K/mol
8.589 K | 0.1043 J/K/mol
8.592 K | 0.1046 J/K/mol
8.642 K | 0.1065 J/K/mol
8.696 K | 0.1085 J/K/mol
8.785 K | 0.1119 J/K/mol
8.792 K | 0.1125 J/K/mol
8.794 K | 0.1122 J/K/mol
8.987 K | 0.1198 J/K/mol
8.993 K | 0.1201 J/K/mol
8.996 K | 0.1202 J/K/mol
9.07 K | 0.1232 J/K/mol
9.158 K | 0.127 J/K/mol
9.188 K | 0.1284 J/K/mol
9.196 K | 0.131 J/K/mol and 0.1286 J/K/mol
9.198 K | 0.1286 J/K/mol
9.393 K | 0.1371 J/K/mol
9.398 K | 0.1378 J/K/mol
9.4 K | 0.1349 J/K/mol
9.447 K | 0.1398 J/K/mol
9.586 K | 0.1462 J/K/mol
9.598 K | 0.1469 J/K/mol
9.602 K | 0.1471 J/K/mol
9.675 K | 0.1505 J/K/mol
9.792 K | 0.1565 J/K/mol
9.8 K | 0.1568 J/K/mol
9.805 K | 0.157 J/K/mol
9.822 K | 0.1578 J/K/mol
